Conditions: human, in vivo
Method: Specifically, subjects (n=15) received 8 g of gluten after at least 8 hours of fasting, following a gluten-free diet for at least 36 hours in individuals without diagnosed celiac disease. The gluten consisted of gluten powder with flavorings (sweeteners and food colorings) contained in single-use heat-sealed sachets. At the same time, volunteers took 1 g of mannitol and 10 g of lactulose. Subsequently, the various urines were collected in separate containers, to be able to perform individualized measurements of the concentration in each void, as well as the total volume of the urines. The amount of gluten peptides present in urine excreted for 15 hours following gluten intake was determined using the iVYCHECK urine product and a calibrated lateral flow strip reader iVYCHECK Reader (Biomedal, Spain). […]
In this example conducted with 15 volunteers without symptoms of diagnosed digestive disease, basal urine is analyzed. […] The concentrations of GIP in the excreted urines were measured, both by ELISA and LFIA between 0-6 h after intake and between 2-15 h after intake individually. The GIP concentration of each urine of each volunteer (FIG. 4) and lactulose (FIG. 5) were measured, and subsequently, the % excreted relative to the ingested GIP and the lactulose/mannitol ratio (FIG. 6) were calculated. The correlation between lactulose: mannitol and GIP was determined. […]

Q: With gluten as the compound, how does the “share of detectable gluten excreted in the first 9 to 15 hours” value read?
A: The value was > 80%.

Q: Which “time over which lactulose excretion occurs” value does the source give for OC[C@H]1O[C@@H](O[C@@H]2[C@@H](CO)OC(O)(CO)[C@H]2O)[C@H](O)[C@@H](O)[C@H]1O (mixture of isomers) [lactulose] here?
A: Its value is > 15 h.
